Reference: patent US20190167694A1, “NEW THERAPEUTICS USES” (NOVARTIS AG, priority 2016, published 2019)

Assays:
BTK (TMD-8) = assay: cells; settings: Homo sapiens, TMD8, 72 h, read-out: IC50, BTK (TMD-8) proliferation
Protocol: After 3 days, cell viability was measured using Cell Titer Glo.

TXK = target: T1, TXK (Homo sapiens, UniProt P42681); assay: Biochemical TXK assay (Caliper LabChip)
T1 sequence (P42681 1-527): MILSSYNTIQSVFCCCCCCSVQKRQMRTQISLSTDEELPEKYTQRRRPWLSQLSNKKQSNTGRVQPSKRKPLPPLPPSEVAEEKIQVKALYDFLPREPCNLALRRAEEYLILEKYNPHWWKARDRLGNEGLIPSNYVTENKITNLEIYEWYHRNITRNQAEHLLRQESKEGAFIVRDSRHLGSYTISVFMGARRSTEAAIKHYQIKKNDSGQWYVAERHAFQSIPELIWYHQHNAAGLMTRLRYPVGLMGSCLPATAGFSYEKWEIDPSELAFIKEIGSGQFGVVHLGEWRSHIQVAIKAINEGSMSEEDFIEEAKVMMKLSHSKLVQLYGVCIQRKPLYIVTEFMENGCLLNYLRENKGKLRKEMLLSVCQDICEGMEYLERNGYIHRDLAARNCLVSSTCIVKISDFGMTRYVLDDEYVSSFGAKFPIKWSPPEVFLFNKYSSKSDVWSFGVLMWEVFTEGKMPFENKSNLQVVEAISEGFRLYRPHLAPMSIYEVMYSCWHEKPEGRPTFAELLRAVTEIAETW
Protocol: The biochemical assays for ITK, TEC and TXK were carried out using Caliper Life Sciences' proprietary LabChip™ technology. This technology uses a microfluidic chip to measure the conversion of a fluorescent peptide substrate to a phosphorylated product. The product conversions were determined in the presence of various compound concentrations and IC50 values were calculated.

[1] = system: TEC-family kinases (ITK, TEC, and TXK); assay: Cellular IL-2 production assay in Jurkat cells (CD3/CD28 stimulation, ELISA); assay type: cell-based; settings: Homo sapiens, read-out: IC50, IL2-Production
Protocol: The cellular IL-2 Production assay was carried out using Jurkat cells.

Human CD4 T cell = Human CD4 T cell proliferation assay (Cell Titer Glo); assay type: cell-based; settings: 96 h, anti-CD3/anti-CD28 beads, 4 days
Protocol: In the Human CD4 T cell assay, primary human CD4+ T cells isolated from a leukopak were cultured in the presence of anti-CD^3/anti-CD28 beads to stimulate T cell proliferation.

Mouse B cell = assay: cells; settings: 72 h, read-out: IC50, Mouse B cell proliferation
Protocol: Cells were incubated at 37° C. in the presence of various concentrations of compound. After 3 days, cell viability was measured using Cell Titer Glo.

[2] = system: anti-KLH IgM and anti-KLH IgG antibodies; assay: T-cell dependent antibody response (TDAR) assay in rats, KLH immunization; assay type: in vivo, rat; settings: for anti-KLH IgG, mean percent difference compared to vehicle controls / anti-KLH IgM, mean percent difference compared to vehicle controls: 30 mg/kg/day oral
Protocol: T-cells play critical roles in immune regulation. T-cell Tec family kinases are important players in T-cell function, which in turn can modulate immune function. COMPOUND A was tested in a T-cell dependent antibody response (TDAR) assay, a frequently used functional assessment of the immune system. […] On study days 11 and 25 for the main study animals and days 28 and 42 for the recovery group, animals received 300 μg of KLH (Keyhole Limpet Hemocyanin) antigen. Samples for serology assessment of anti-KLH IgM and anti-KLH IgG antibodies (study days 19, 21, 23, 25 and 36 prior to dosing from the main study animals; recovery days 42 and 53 prior to KLH injection from the recovery animals) were collected. Immunomodulatory responses in COMPOUND A-treated animals following KLH immunization were noted when values were compared to concurrent vehicle controls. […] The decreases were also observed in mean anti-KLH IgM values on study days 21, 23, 25 (primary response, time course) and day 36 (post boosting) for female rats. For anti-KLH IgG antibodies, decreases in mean concentration were apparent on study days 19, 21, 23 and 25 for both male and female rats. On study day 36, decreases in mean concentration were detected in female rats. Recovery following withdrawal of COMPOUND A treatment was noted. The COMPOUND A-related decrease of anti-KLH antibody production in both male and female rats was reversible. This included both primary response-anti-KLH IgM, and isotype switch measured by secondary anti-KLH IgG production as indicated by values that were similar to concurrent controls at the recovery sampling time points (recovery day 42 and 53).

TEC = target: T2, TEC (Homo sapiens, UniProt P42680); assay: Biochemical TEC assay (Caliper LabChip)
T2 sequence (P42680 1-631): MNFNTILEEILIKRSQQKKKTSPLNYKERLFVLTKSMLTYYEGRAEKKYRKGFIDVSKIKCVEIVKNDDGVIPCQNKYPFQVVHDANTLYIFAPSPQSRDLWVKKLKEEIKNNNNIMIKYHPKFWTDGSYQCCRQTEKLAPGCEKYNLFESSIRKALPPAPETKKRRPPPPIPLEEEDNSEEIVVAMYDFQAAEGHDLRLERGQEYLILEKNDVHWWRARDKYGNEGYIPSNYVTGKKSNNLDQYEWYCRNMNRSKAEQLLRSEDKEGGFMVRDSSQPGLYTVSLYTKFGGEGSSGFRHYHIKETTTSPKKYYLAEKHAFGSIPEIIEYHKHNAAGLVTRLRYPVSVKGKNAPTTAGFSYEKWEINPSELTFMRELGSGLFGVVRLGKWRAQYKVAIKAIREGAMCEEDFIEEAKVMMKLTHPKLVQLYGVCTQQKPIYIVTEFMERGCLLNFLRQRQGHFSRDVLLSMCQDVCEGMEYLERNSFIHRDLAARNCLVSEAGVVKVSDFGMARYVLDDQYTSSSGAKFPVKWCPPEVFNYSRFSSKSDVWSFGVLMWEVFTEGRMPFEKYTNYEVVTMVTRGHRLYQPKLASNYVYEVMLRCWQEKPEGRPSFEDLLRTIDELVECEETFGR

[3] = female rats, study day 36 (post boosting)

Cc1cc(C(=O)Nc2nc3cccc(Cl)c3n2[C@@H]2CCCCN(C(=O)/C=C/CN(C)C)C2)ccn1 [COMPOUND A, (R,E)-N-(7-chloro-1-(1-(4-(dimethylamino)but-2-enoyl)azepan-3-yl)-1H-benzo[d]imidazol-2-yl)-2-methylisonicotinamide]
IC50 (BTK (TMD-8)): 224 nM
IC50, TXK biochemical (TXK): single digit nM potency
IC50 [1]: 21 nM
IC50 (Human CD4 T cell): 140 nM
IC50 (Mouse B cell): 295 nM
anti-KLH IgG, mean percent difference compared to vehicle controls ([2]; female rats, study day 19): −96%
anti-KLH IgM, mean percent difference compared to vehicle controls ([2]; female rats, study day 19): −88%
anti-KLH IgG, mean percent difference compared to vehicle controls ([2]; female rats, study day 21): −98%
anti-KLH IgM, mean percent difference compared to vehicle controls ([2]; female rats, study day 21): −75%
anti-KLH IgG, mean percent difference compared to vehicle controls ([2]; female rats, study day 23): −97%
anti-KLH IgM, mean percent difference compared to vehicle controls ([2]; female rats, study day 23): −71%
anti-KLH IgG, mean percent difference compared to vehicle controls ([2]; female rats, study day 25): −96%
anti-KLH IgM, mean percent difference compared to vehicle controls ([2]; female rats, study day 25): −63%
anti-KLH IgG, mean percent difference compared to vehicle controls [2, 3]: −69%
anti-KLH IgM, mean percent difference compared to vehicle controls [2, 3]: −67%
reversibility of decrease of anti-KLH antibody production after withdrawal of treatment ([2]; male and female rats, 30 mg/kg/day, recovery days 42 and 53): reversible
anti-KLH IgG, mean percent difference compared to vehicle controls ([2]; male rats, study day 19): −78%
anti-KLH IgM, mean percent difference compared to vehicle controls ([2]; male rats, study day 19): −67%
anti-KLH IgG, mean percent difference compared to vehicle controls ([2]; male rats, study day 21): −84%
anti-KLH IgG, mean percent difference compared to vehicle controls ([2]; male rats, study day 23): −80%
anti-KLH IgG, mean percent difference compared to vehicle controls ([2]; male rats, study day 25): −83%
IC50, TEC biochemical (TEC): single digit nM potency

C=CC(=O)N1CCC[C@@H](n2nc(-c3ccc(Oc4ccccc4)cc3)c3c(N)ncnc32)C1 [Ibrutinib, ibrutinib, reference compound]
IC50 [1]: 284 nM
